These results are taken from patent US20230136297A1, “Methods Of Treating Fabry Disease In Patients Having A Mutation In The GLA Gene” (Amicus Therapeutics, Inc., priority 2020, published 2023).

Test in all cases: α-Gal A activity in lysates of transfected HEK-293 cells ± migalastat (HEK assay)
Common to all, as to assay type: cell-based

Test [1] deals with T1, α-Gal A mutant form D182G (Homo sapiens, UniProt P06280, D182G).
T1 construct: expressed in transfected cells; host or cells: HEK-293
T1 sequence (P06280 32-429 D182G): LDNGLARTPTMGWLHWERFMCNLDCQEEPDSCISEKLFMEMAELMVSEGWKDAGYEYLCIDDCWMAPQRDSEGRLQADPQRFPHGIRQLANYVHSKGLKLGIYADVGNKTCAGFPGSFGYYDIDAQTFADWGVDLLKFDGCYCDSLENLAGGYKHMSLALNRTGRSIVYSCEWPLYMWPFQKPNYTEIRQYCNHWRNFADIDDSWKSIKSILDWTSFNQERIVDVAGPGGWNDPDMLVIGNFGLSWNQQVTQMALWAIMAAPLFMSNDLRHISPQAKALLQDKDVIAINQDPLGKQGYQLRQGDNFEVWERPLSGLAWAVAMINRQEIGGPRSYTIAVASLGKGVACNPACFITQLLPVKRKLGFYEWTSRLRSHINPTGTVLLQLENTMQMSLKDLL
From the text:
(§1) Such mutations or variants are also referred to herein as “HEK assay amenable” mutations or variants.
(§2) The α-Gal A activity is expressed as the nmoles of free 4-MU released per milligram of protein per hour (nmol/mg/hr).

In test [2] the target is T2, α-Gal A mutant form I133F (Homo sapiens, UniProt P06280, I133F).
T2 construct: expressed in transfected cells; host or cells: HEK-293
T2 sequence (P06280 32-429 I133F): T1 sequence (P06280 32-429 D182G) with I102F, G151D
Source text: as §1, §2

Test [3] deals with T3, α-Gal A mutant form M290V (Homo sapiens, UniProt P06280, M290V).
T3 construct: expressed in transfected cells; host or cells: HEK-293
T3 sequence (P06280 32-429 M290V): T1 sequence (P06280 32-429 D182G) with G151D, M259V
Source text: as §1, §2

The target in test [4] is T4, α-Gal A mutant form P259S (Homo sapiens, UniProt P06280, P259S).
T4 construct: expressed in transfected cells; host or cells: HEK-293
T4 sequence (P06280 32-429 P259S): T1 sequence (P06280 32-429 D182G) with G151D, P228S
Source text: as §1, §2

Test [5] has as its target T5, α-Gal A mutant form Y88C (Homo sapiens, UniProt P06280, Y88C).
T5 construct: expressed in transfected cells; host or cells: HEK-293
T5 sequence (P06280 32-429 Y88C): T1 sequence (P06280 32-429 D182G) with Y57C, G151D
Source text: as §1, §2

The mark [6] stands for this setting: 10 μM migalastat minus baseline.
[7] abbreviates: HEK-293 lysates, 10 μM migalastat 5 days, mean ± SEM.

SMILES strings stand for the structures. Where a chain is given by its changes, count along the chain named.

As to `OC[C@H]1NC[C@H](O)[C@@H](O)[C@H]1O` [migalastat, (2R,3S,4R,5S)-2-(hydroxymethyl) piperdine-3,4,5-triol], the “Absolute increase (% WT)” value came out at 45.6 % WT in test [1] (setting [6]); 3.1 % WT in test [2] (setting [6]); 61.5 % WT in test [3] (setting [6]); 35.5 % WT in test [4] (setting [6]); 9.9 % WT in test [5] (setting [6]). Further, the Relative increase was found to be 1.56 in test [1] (10 μM migalastat ÷ baseline); 5.27 in test [2] (10 μM migalastat ÷ baseline); 1.94 in test [3] (10 μM migalastat ÷ baseline); 1.86 in test [4] (10 μM migalastat ÷ baseline); 3.38 in test [5] (10 μM migalastat ÷ baseline). For the same compound, the “10 μM migalastat α-Gal A activity” value in test [1] (setting [7]) is 43772 ± 4156 nmol/mg/h; in test [2] (setting [7]), 1542 ± 154 nmol/mg/h; in test [3] (setting [7]), 45804 ± 2927 nmol/mg/h; in test [4] (setting [7]) it was 28621 ± 3141 nmol/mg/h; in test [5] (setting [7]) it was 5459 ± 307 nmol/mg/h. Further, the “10 μM migalastat α-Gal A activity (% WT)” value is given as 129.6 ± 9.7 % WT in test [1] (setting [7]); 3.8 ± 0.3 % WT in test [2] (setting [7]); 128.1 ± 8.2 % WT in test [3] (setting [7]); 79.8 ± 4.8 % WT in test [4] (setting [7]); 14 ± 1.1 % WT in test [5] (setting [7]).
